Measured values as given in ChEMBL document CHEMBL3046697, “Syntheses, antifeedant activity, and QSAR analysis of new oxa(thia)diazolyl 3(2H)-pyridazinones” (J Agric Food Chem, 2005).

What was measured:
[1] = Hydrophobicity, log P of the compound; type: physicochemical; conditions: octanol/water
[2] = system: Mythimna separata; assay: Antifeedant activity against second-instar larvae of Mythimna separata (Oriental armyworm) in compound treated leaves assessed as growth inhibition measured after 5 days by chronic growth bioassay; type: functional, organism-based; conditions: 120 h

For COc1ccc(-c2nnc(COc3cnn(C(C)(C)C)c(=O)c3Cl)o2)cc1, the logP [1] was 3.52, the EC50 ([2]; read-out: EC50) was 17.7 µg/mL and the EC50 ([2]; read-out: pEC50 (converted)) was 17.7 µM.

Work on Cc1cccc(-c2nnc(COc3cnn(C(C)(C)C)c(=O)c3Cl)o2)c1 yielded a logP [1] of 3.02, an EC50 ([2]; read-out: EC50) of 116 µg/mL and an EC50 ([2]; read-out: pEC50 (converted)) of 116 µM.

For CCCCn1ncc(OCc2nnc(-c3ccccc3)o2)c(Cl)c1=O, the EC50 ([2]; read-out: EC50) was > 300 µg/mL and the EC50 ([2]; read-out: pEC50 (converted)) was > 300 µM.

CC(C)(C)n1ncc(SCc2nnc(-c3ccc(Cl)cc3)o2)c(Cl)c1=O gave an EC50 ([2]; read-out: EC50) of 180 µg/mL and an EC50 ([2]; read-out: pEC50 (converted)) of 180 µM.

With CC(C)(C)n1ncc(OCc2nnc(-c3ccc([N+](=O)[O-])cc3)o2)c(Cl)c1=O the EC50 ([2]; read-out: EC50) was > 300 µg/mL and the EC50 ([2]; read-out: pEC50 (converted)) was > 300 µM.

With Cc1cc(C)cc(-c2nnc(CSc3cnn(C(C)(C)C)c(=O)c3Cl)o2)c1 the EC50 ([2]; read-out: EC50) was > 300 µg/mL and the EC50 ([2]; read-out: pEC50 (converted)) was > 300 µM.

With CCn1ncc(OCc2nnc(-c3ccccc3)o2)c(Cl)c1=O the EC50 ([2]; read-out: EC50) was > 300 µg/mL and the EC50 ([2]; read-out: pEC50 (converted)) was > 300 µM.

O=c1c(Cl)c(OCc2nnc(-c3ccccc3)o2)cnn1-c1ccccc1 showed an EC50 ([2]; read-out: EC50) of 91.5 µg/mL and an EC50 ([2]; read-out: pEC50 (converted)) of 91.4 µM.

Compound CC(C)(C)n1ncc(OCc2nnc(-c3cc(F)c(F)c(F)c3F)o2)c(Cl)c1=O has a logP [1] of 3.18, an EC50 ([2]; read-out: EC50) of 241 µg/mL and an EC50 ([2]; read-out: pEC50 (converted)) of 240 µM.

In the case of CC(C)(C)n1ncc(OCc2nnc(-c3cc(F)c(F)cc3F)o2)c(Cl)c1=O, the logP [1] is reported as 2.96, the EC50 ([2]; read-out: EC50) is reported as 75.7 µg/mL and the EC50 ([2]; read-out: pEC50 (converted)) is reported as 75.7 µM.

CC(C)(C)n1ncc(OCc2nnc(-c3ccc(F)cc3)s2)c(Cl)c1=O showed an EC50 ([2]; read-out: EC50) of 21.5 µg/mL and an EC50 ([2]; read-out: pEC50 (converted)) of 21.5 µM.

For CC(C)(C)n1ncc(SCc2nnc(-c3ccccc3)o2)c(Cl)c1=O, the EC50 ([2]; read-out: EC50) was > 300 µg/mL and the EC50 ([2]; read-out: pEC50 (converted)) was > 300 µM.

Compound CCCCn1ncc(OCc2nnc(-c3ccc(Cl)cc3)o2)c(Cl)c1=O has an EC50 ([2]; read-out: EC50) of 224 µg/mL and an EC50 ([2]; read-out: pEC50 (converted)) of 223 µM.

In the case of CC(C)(C)n1ncc(OCc2nnc(-c3cccs3)o2)c(Cl)c1=O, the EC50 ([2]; read-out: EC50) is reported as > 300 µg/mL and the EC50 ([2]; read-out: pEC50 (converted)) is reported as > 300 µM.

With CCn1ncc(OCc2nnc(-c3ccc(F)cc3)o2)c(Cl)c1=O the EC50 ([2]; read-out: EC50) was > 300 µg/mL and the EC50 ([2]; read-out: pEC50 (converted)) was > 300 µM.

With CC(C)(C)n1ncc(SCc2nnc(-c3cccc(F)c3)o2)c(Cl)c1=O the EC50 ([2]; read-out: EC50) was 243 µg/mL and the EC50 ([2]; read-out: pEC50 (converted)) was 243 µM.

In the case of CC(C)(C)n1ncc(OCc2nnc(-c3ccccc3Cl)o2)c(Cl)c1=O, the logP [1] is reported as 3.19, the EC50 ([2]; read-out: EC50) is reported as 61.2 µg/mL and the EC50 ([2]; read-out: pEC50 (converted)) is reported as 61.2 µM.

CC(C)(C)n1ncc(OCc2nnc(-c3ccc(C(F)(F)F)cc3)o2)c(Cl)c1=O gave a logP [1] of 3.66, an EC50 ([2]; read-out: EC50) of 34.1 µg/mL and an EC50 ([2]; read-out: pEC50 (converted)) of 33.8 µM.

For CC(C)(C)n1ncc(OCc2nnc(-c3ccccc3F)o2)c(Cl)c1=O, the logP [1] was 2.89, the EC50 ([2]; read-out: EC50) was 16.8 µg/mL and the EC50 ([2]; read-out: pEC50 (converted)) was 16.8 µM.

CC(C)(C)n1ncc(OCc2nnc(-c3cccc(F)c3)o2)c(Cl)c1=O showed a logP [1] of 2.69, an EC50 ([2]; read-out: EC50) of 7.1 µg/mL and an EC50 ([2]; read-out: pEC50 (converted)) of 7.1 µM.

Work on CC(C)(C)n1ncc(OCc2nnc(-c3ccccc3F)s2)c(Cl)c1=O yielded an EC50 ([2]; read-out: EC50) of 121 µg/mL and an EC50 ([2]; read-out: pEC50 (converted)) of 121 µM.

Compound CC(C)(C)n1ncc(OCc2nnc(-c3ccc(Cl)cc3Cl)s2)c(Cl)c1=O has an EC50 ([2]; read-out: EC50) of 62.2 µg/mL and an EC50 ([2]; read-out: pEC50 (converted)) of 62.2 µM.

CC(C)(C)n1ncc(OCc2nnc(-c3ccc(Cl)cc3Cl)o2)c(Cl)c1=O showed a logP [1] of 3.52, an EC50 ([2]; read-out: EC50) of 27.8 µg/mL and an EC50 ([2]; read-out: pEC50 (converted)) of 27.8 µM.

For CC(C)(C)n1ncc(SCc2nnc(-c3ccc([N+](=O)[O-])cc3)o2)c(Cl)c1=O, the EC50 ([2]; read-out: EC50) was > 300 µg/mL and the EC50 ([2]; read-out: pEC50 (converted)) was > 300 µM.

With CCCCn1ncc(OCc2nnc(-c3ccc(F)cc3)o2)c(Cl)c1=O the EC50 ([2]; read-out: EC50) was 162 µg/mL and the EC50 ([2]; read-out: pEC50 (converted)) was 161 µM.

For CCc1ccc(-c2nnc(COc3cnn(C(C)(C)C)c(=O)c3Cl)o2)cc1, the logP [1] was 3.52, the EC50 ([2]; read-out: EC50) was 14.5 µg/mL and the EC50 ([2]; read-out: pEC50 (converted)) was 14.5 µM.

In the case of Cc1cccc(-c2nnc(CSc3cnn(C(C)(C)C)c(=O)c3Cl)o2)c1, the EC50 ([2]; read-out: EC50) is reported as > 300 µg/mL and the EC50 ([2]; read-out: pEC50 (converted)) is reported as > 300 µM.

With Cc1cc(C)cc(-c2nnc(COc3cnn(C(C)(C)C)c(=O)c3Cl)s2)c1 the EC50 ([2]; read-out: EC50) was > 300 µg/mL and the EC50 ([2]; read-out: pEC50 (converted)) was > 300 µM.

CC(C)(C)n1ncc(OCc2nnc(-c3ccc(Cl)cc3F)o2)c(Cl)c1=O gave a logP [1] of 3.23, an EC50 ([2]; read-out: EC50) of 10.4 µg/mL and an EC50 ([2]; read-out: pEC50 (converted)) of 10.4 µM.

CC(C)(C)n1ncc(OCc2nnc(-c3ccccc3)s2)c(Cl)c1=O gave an EC50 ([2]; read-out: EC50) of 200 µg/mL and an EC50 ([2]; read-out: pEC50 (converted)) of 200 µM.

In the case of Cc1cccc(-c2nnc(COc3cnn(C(C)(C)C)c(=O)c3Cl)s2)c1, the EC50 ([2]; read-out: EC50) is reported as > 300 µg/mL and the EC50 ([2]; read-out: pEC50 (converted)) is reported as > 300 µM.

Work on CC(C)(C)n1ncc(OCc2nnc(-c3ccc(Cl)cc3)s2)c(Cl)c1=O yielded an EC50 ([2]; read-out: EC50) of 106 µg/mL and an EC50 ([2]; read-out: pEC50 (converted)) of 106 µM.

Compound CC(C)(C)n1ncc(OCc2nnc(-c3c(F)c(F)c(F)c(F)c3F)o2)c(Cl)c1=O has a logP [1] of 3.06, an EC50 ([2]; read-out: EC50) of 271 µg/mL and an EC50 ([2]; read-out: pEC50 (converted)) of 271 µM.

In the case of Cc1cc(C)cc(-c2nnc(COc3cnn(C(C)(C)C)c(=O)c3Cl)o2)c1, the EC50 ([2]; read-out: EC50) is reported as > 300 µg/mL and the EC50 ([2]; read-out: pEC50 (converted)) is reported as > 300 µM.

C/C=C(\C)C(=O)O[C@H]1C[C@@H](OC(C)=O)[C@@]2(C(=O)OC)CO[C@H]3[C@@H](O)[C@@](C)([C@]45O[C@@]4(C)[C@@H]4C[C@H]5O[C@@H]5OC=C[C@@]54O)[C@H]4[C@]1(CO[C@]4(O)C(=O)OC)[C@@H]32 [AZADIRACHTIN A] showed an EC50 ([2]; read-out: EC50) of 0.58 µg/mL and an EC50 ([2]; read-out: pEC50 (converted)) of 0.579 µM.

With COc1c(F)c(F)cc(-c2nnc(COc3cnn(C(C)(C)C)c(=O)c3Cl)o2)c1F the EC50 ([2]; read-out: EC50) was > 300 µg/mL and the EC50 ([2]; read-out: pEC50 (converted)) was > 300 µM.

Compound CC(C)(C)n1ncc(OCc2nnc(-c3ccc(Br)cc3)o2)c(Cl)c1=O has a logP [1] of 3.21, an EC50 ([2]; read-out: EC50) of 21.4 µg/mL and an EC50 ([2]; read-out: pEC50 (converted)) of 21.4 µM.

With Cc1nnc(COc2cnn(C(C)(C)C)c(=O)c2Cl)o1 the EC50 ([2]; read-out: EC50) was > 300 µg/mL and the EC50 ([2]; read-out: pEC50 (converted)) was > 300 µM.

Work on CC(C)(C)n1ncc(OCc2nnc(-c3c(F)cccc3F)o2)c(Cl)c1=O yielded a logP [1] of 2.75, an EC50 ([2]; read-out: EC50) of 45.4 µg/mL and an EC50 ([2]; read-out: pEC50 (converted)) of 45.4 µM.

Compound Cc1ccc(-c2nnc(COc3cnn(C(C)(C)C)c(=O)c3Cl)o2)cc1 has a logP [1] of 3.01, an EC50 ([2]; read-out: EC50) of 19.9 µg/mL and an EC50 ([2]; read-out: pEC50 (converted)) of 19.9 µM.

Work on CC(C)(C)n1ncc(OCc2nnc(-c3ccc(Cl)cc3)o2)c(Cl)c1=O yielded a logP [1] of 3.09, an EC50 ([2]; read-out: EC50) of 1.9 µg/mL and an EC50 ([2]; read-out: pEC50 (converted)) of 1.9 µM.

In the case of CC(C)(C)n1ncc(OCc2nnc(-c3ccccc3)o2)c(Cl)c1=O, the logP [1] is reported as 2.95, the EC50 ([2]; read-out: EC50) is reported as 12.2 µg/mL and the EC50 ([2]; read-out: pEC50 (converted)) is reported as 12.2 µM.

CC(C)(C)n1ncc(OCc2nnc(-c3cc(F)c(Cl)cc3Cl)s2)c(Cl)c1=O showed an EC50 ([2]; read-out: EC50) of 67.1 µg/mL and an EC50 ([2]; read-out: pEC50 (converted)) of 67.1 µM.

In the case of CC(C)(C)n1ncc(OCc2nnc(-c3ccc(F)cc3)o2)c(Cl)c1=O, the logP [1] is reported as 2.69, the EC50 ([2]; read-out: EC50) is reported as 5.2 µg/mL and the EC50 ([2]; read-out: pEC50 (converted)) is reported as 5.2 µM.

In the case of CC(C)(C)n1ncc(SCc2nnc(-c3ccc(F)cc3)o2)c(Cl)c1=O, the EC50 ([2]; read-out: EC50) is reported as 150 µg/mL and the EC50 ([2]; read-out: pEC50 (converted)) is reported as 151 µM.

For CC(C)(C)n1ncc(OCc2nnc(-c3ccco3)o2)c(Cl)c1=O, the EC50 ([2]; read-out: EC50) was > 300 µg/mL and the EC50 ([2]; read-out: pEC50 (converted)) was > 300 µM.

In the case of CC(C)(C)n1ncc(OCc2nnc(-c3cc(F)c(Cl)c([N+](=O)[O-])c3Cl)o2)c(Cl)c1=O, the EC50 ([2]; read-out: EC50) is reported as > 300 µg/mL and the EC50 ([2]; read-out: pEC50 (converted)) is reported as > 300 µM.

CC(C)(C)n1ncc(SCc2nnc(-c3ccccc3F)o2)c(Cl)c1=O gave an EC50 ([2]; read-out: EC50) of 269 µg/mL and an EC50 ([2]; read-out: pEC50 (converted)) of 270 µM.

Compound CC(C)(C)n1ncc(OCc2nnc(-c3cc(F)c(Cl)cc3Cl)o2)c(Cl)c1=O has a logP [1] of 3.36, an EC50 ([2]; read-out: EC50) of 23.1 µg/mL and an EC50 ([2]; read-out: pEC50 (converted)) of 23.1 µM.
